What was measured:
Type in all cases: physicochemical
[1] = solubility in organic solvents (epoxidized soybean oil, methyl caprylate/caprate, cottonseed oil)
Method: (§1) Tetradodecyl ammonium bromide was dissolved in 5 mL of CH2Cl2 and stirred with 3.3 mL of 1 N NaOH. To this was added 1.27 g of N-[[(4,6-dimethoxypyrimidine-2-yl)amino]carbonyl]-1-methyl-4-(2-methyl-2H-tetrazol-5-yl)-H-pyrazole-5-sulfonamide (97.8%) dissolved in 5 mL of CH2Cl2 and stirring continued for 5 min at 25° C. The organic phase was separated, washed with water, dried and the solvent removed tinder vacuum in a rotary evaporator at a maximum of 50° C. The resulting viscous, colorless oil gave an assay of 35% of the corresponding sulfonylurea quaternary salt (vs. 38% theory) using HPLC. This oil was more than-50% soluble in epoxidized soybean oil, methyl caprylate/caprate, and cottonseed oil. 50% solutions of the resultant sulfonylurea quaternary salt in these three solvents were aged 1 week at 54° C., giving 20-45% relative degradation by HPLC analysis.

[2] = storage stability on aging, decomposition of the sulfonylurea measured by HPLC
Method: To 21.57 g 2-[[[[(4,6-dimethoxy-2-pyrimidinyl)amino]carbonyl]-amino]sulfonyl]-N,N-dimethyl-3-pyridinecarboxamide and 50 mL 1.0 N NaOH in 1400 mL methylene chloride was incrementally added 22.37 g of diisobutylphenoxy ethoxyethyl dimethylbenzyl ammonium chloride (Hyamine 1622, commercially available from Lonza), with several small methylene chloride washes to facilitate transfer. The reaction medium was filtered through a bed of molecular sieves to remove mineral salts and water. Methylene chloride was stripped to recover the white powder. Upon aging for 1 week at 54 C., 9% relative decomposition of the sulfonylurea resulted as measured by HPLC.
Into 7.8 g of epoxidized soybean oil (ESBO) was added with stirring: 1.18 g methyl 3-[[[[(4-methoxy-6-methyl-1,3,5-triazin-2-yl)amino]carbonyl]amino]sulfonyl]-2-thiophenecarboxylate tech (98.1%), 1.31 g of anhydrous diisobutylphenoxy ethoxyethyl dimethylbenzyl ammonium chloride […] (Hyamine 1622, available from Lonza), 0.11 g Ca(OH)2, and 0.03 g calcium acetate. The mixture was aged 3 weeks at 45° C. giving 0% relative decomposition of the sulfonylurea as measured by HPLC.
A solution on 15 g of methyl 2-[[[[(4-methoxy-6-methyl-1,3,5-triazin-2-yl)methylamino]carbonyl]amino]sulfonyl]benzoate tech (95.7%) and 18 g of Na2CO3 in 300 g of CH2Cl2 was treated with 1.5 g of NaOH and stirred 2 h. 8.65 g of benzyl triethyl ammonium chloride was added to the suspension and the mixture stirred overnight. The suspension was filtered and the filtrate stripped of solvent on a rotary evaporator yielding the corresponding sulfonylurea quaternary salt as a viscous yellow oil (15.7 g) using 1 g of the oil, a 20% solution of the quaternary salt was made in triethyl phosphate. Upon aging for 1 week at 54° C., 1% relative decomposition of the sulfonylurea resulted as indicated by HPLC.
A quaternary salt sulfonylurea was prepared using the procedure of Example 3 with 20 g methyl 2-[[[[(4-methoxy-6-methyl-1,3,5-triazin-2-yl)methylamino]carbonyl]-amino]sulfonyl]benzoate, 30 g Na2CO3, 400 g CH2Cl2, 2 g NaOH and 11.5 g benzyl triethyl ammonium chloride. One gram of the resulting orange viscous oil was made up as a 20% solution in triethyl phosphate. Upon aging for 1 week at 54° C., 2% relative decomposition of the sulfonylurea resulted as indicated by HPLC.
as §1
In a vial was vortexed the following: 0.214 g methyl 2-[[[[[(4,6-dimethoxy-2-pyrimidinyl)amino]carbonyl]amino]sulfonyl]methyl]benzoate (98.3%), 0.192 g of a 25% aqueous solution of tetramethyl ammonium hydroxide, and 4.32 g of water to produce the sulfonylurea quaternary salt. Upon aging the solution at 54° C. for one week, 52% degradation of the sulfonylurea resulted as measured by HPLC.
(§2) Deionized water (5 g) was saturated with 2-[[[[(4,6-dimethoxy-2-pyrimidinyl)amino]carbonyl]amino]sulfonyl]-N,N-dimethyl-3-pyridinencarboxamide tech (500 ppm) and aged at 25° C. for 30 days.

[3] = saturation of deionized water; settings: tech material
Method: as §2

[4] = 20% solution in triethyl phosphate, aging 1 week at 54° C., HPLC

CCCCCCCCCCCC[N+](CCCCCCCCCCCC)(CCCCCCCCCCCC)CCCCCCCCCCCC.COc1cc(OC)nc(NC(=O)[N-]S(=O)(=O)c2c(-c3nnn(C)n3)cnn2C)n1 [A]
solubility [1]: > 50% | relative degradation [2]: 20-45%

COC(=O)c1ccccc1CS(=O)(=O)[N-]C(=O)Nc1nc(OC)cc(OC)n1.C[N+](C)(C)C [B]
degradation of the sulfonylurea ([2]; aqueous solution, aging at 54° C. for one week, HPLC): 52%

COc1cc(OC)nc(NC(=O)NS(=O)(=O)c2ncccc2C(=O)N(C)C)n1 [C, 2-[[[[(4,6-dimethoxy-2-pyrimidinyl)amino]carbonyl]amino]sulfonyl]-N,N-dimethyl-3-pyridinencarboxamide]
concentration at saturation in deionized water [3]: 500 ppm

COc1cc(OC)nc(NC(=O)NS(=O)(=O)c2c(-c3nnn(C)n3)cnn2C)n1 [N-[[(4,6-dimethoxypyrimidine-2-yl)amino]carbonyl]-1-methyl-4-(2-methyl-2H-tetrazol-5-yl)-1H-pyrazole-5-sulfonamide]
solubility (in words) ([1]; in epoxidized soybean oil, methyl caprylate/caprate, and cottonseed oil): practically insoluble

In situ Quaternary Salt of Methyl 3-[[[[(4-Methoxy-6-Methyl-1,3,5-Triazin-2-yl)Amino]carbonyl]amino]sulfonyl]-2-Thiophenecarboxylate [Example 2]
relative decomposition of the sulfonylurea ([2]; in situ mixture in epoxidized soybean oil with Ca(OH)2 and calcium acetate, aged 3 weeks at 45° C., HPLC): 0%

Quaternary Salt of Methyl 2-[[[[(4-Methoxy-6-Methyl-1,3,5-Triazin-0.2-yl)Methylamino]carbonyl]amino]sulfonyl]benzoate [Example 3]
relative decomposition of the sulfonylurea [2, 4]: 1%

Quaternary Salt of Methyl 2-[[[[(4-Methoxy-6-Methyl-1,3,5-Triazin-2-yl)Methylamino]carbonyl]amino]sulfonyl]benzoate [Example 4]
relative decomposition of the sulfonylurea [2, 4]: 2%

Quaternary salt of 2-[[[[(4.6-Dimethoxy-2-Pyrimidinyl)amino]carbonyl]amino]sulfonyl]-N,N-Dimethyl-3-Pyridinecarboxamide [Example 1]
relative decomposition of the sulfonylurea ([2]; isolated white powder, aging 1 week at 54 C, HPLC): 9%

From US20030022794A1, “Novel quaternary salts and their use in agricultural formulations” (priority 1997, published 2003)
